Measurements published in patent publication US20240373851A1, “PEST CONTROL COMPOSITION AND PEST CONTROL METHOD” (SUMITOMO CHEMICAL COMPANY, LIMITED, priority 2021, published 2024).

What was measured:
Type in all cases: in vivo
[1] = system: German cockroaches (Blattella germanica); test: Test Example 1: control test against German cockroaches, spray in chamber (cup without filter paper); details: adult German cockroaches; 1.5 mL sprayed; concentration [%]: broflanilide 0.01, imiprothrin 0.01, cypermethrin 0.01, alone or mixed; 120 minutes after spraying
Experimental: (§1) Next, the usefulness of the inventive composition for controlling pests will be indicated by Test Examples. In general, the control effect to be expected when treated with a mixture obtained by mixing given two or three types of active ingredient compounds is determined by the Colby's calculation equation represented by the following [Equation 1] and [Equation 2].
(§2) [formula] • P: moribund and mortal rates (%) when treated with an active ingredient compound X in the concentration of m [ppm] • Q: moribund and mortal rates (%) when treated with an active ingredient compound Y in the concentration of n [ppm] • EA: moribund and mortal rates (%) when treated with an active ingredient compound X in the concentration of m [ppm] and an active ingredient compound Y in the concentration of n [ppm] (hereinafter referred to as expected value A) […]
(§3) Regarding the synergistic effect of three types of the active ingredient compounds, in case where the moribund and mortal rates (%) when actually treated with a mixture obtained by mixing three types of the active ingredient compounds exceed the expected value A calculated by using the moribund and mortal rates (%) when actually treated with a mixture obtained by mixing two types of the active ingredient compounds among three types thereof, and the moribund and mortal rates (%) calculated when actually treated the remaining one type of the active ingredient compound, or the expected value B (%) calculated from the moribund and mortal rates (%) when actually treated with each of three types of the active ingredient compounds alone, it was determined that the synergistic effect exists.
In a plastic cup (diameter: 12.4 cm, height: 10.2 cm), ten adult German cockroaches (Blattella germanica) (five males and five females each) were released, and the plastic cup was placed in the center of the bottom of a box-shaped chamber (46 cm×46 cm×70 cm in height). […] After a lapse of 120 minutes from spraying, the number of dead and moribund individuals was examined, and moribund and mortal rates (%) were determined by the equation 3 below. […]

[2] = system: German cockroaches (Blattella germanica); test: Test Example 8: control test against German cockroaches, spray in chamber; details: adult German cockroaches; 1.5 mL sprayed; concentration [%]: nicofluprole 0.01, imiprothrin 0.01, phenothrin 0.1, alone or mixed; 45 minutes after spraying
Experimental: as §1, §2
as §3, with “exists. […]” for “exists.”

[3] = system: German cockroaches (Blattella germanica); test: Test Example 11: control test against German cockroaches, spray in chamber; details: adult German cockroaches; 1.5 mL sprayed; concentration [%]: isocycloseram 0.01, imiprothrin 0.01, permethrin 0.05, alone or mixed; 120 minutes after spraying
Experimental: as §1, §2
as §3, with “exists. […]” for “exists.”

C#CCN1CC(=O)N(COC(=O)[C@@H]2C(C=C(C)C)C2(C)C)C1=O (mixture of isomers) [Imiprothrin, imiprothrin]
Moribund and mortal rates [%] after 120 minutes [1]: 15%
Moribund and mortal rates [%] after 45 minutes [2]: 65%
Moribund and mortal rates [%] after 120 minutes [3]: 15%
